These results are taken from US9085540B2, “Pyrazinecarboxamide compound” (Astellas Pharma Inc., priority 2012, dated 2015).

Each structure is given as a SMILES string.

In test [1] the test system is H1975 cells (EGFR T790M mutation-expressing) subcutaneous tumor. As to the kind of experiment: Anti-tumor test on EGFR T790M mutation-expressing H1975 cell cancer-bearing mice. The test is classed as in vivo. The following applies: Mus musculus, NCI-H1975, 336 h; H1975 cancer-bearing nude mice, oral 10 mg/kg once a day for 14 days; read-out: inhibitory rate (tumor volume). Here is the method:
3×10^6 Cells of H1975 suspended in PBS were inoculated subcutaneously by injection to the back of 5-week old male […] nude mice (Charles River Laboratories Japan, Inc.). After 10 days of the inoculation, the administration of the test compound was initiated. The test was carried out in the solvent group and the test compound groups, with 5 animals per group. The test compounds were each mixed in a solvent of 0.5% aqueous methyl cellulose solution or a mixed solvent of polyethyleneglycol:N-methylpyrrolidone=90:10, and administered orally at a dose of 10 mg/kg. Administrations were performed once a day for 14 days, and the body weight and the tumor diameter were measured roughly every other day. The tumor volume was calculated using the following formula. [Tumor volume (mm^3)]=[Tumor major axis (mm)]×[Tumor minor axis (mm)]^2×0.5

Test [2] deals with Ba/F3 cells expressing EGFR T790M/del19 mutation kinase. As to the kind of experiment: Inhibition of EGFR T790M/del19 mutation kinase-dependent cell proliferation (Cell Titer-Glo). The test is classed as cell-based. The following applies: Mus musculus, BaF3, 48 h; Ba/F3 cells expressing EGFR T790M/del19, cultured 2 days. How it is done:
(§1) In a 96-well plate (Iwaki), Ba/F3 cells were seeded at 500 cells per well in an RPMI1640 medium (Invitrogen) containing 10% fetal bovine serum, followed by the addition of the test compound (final concentrations ranging from 1 μM to 0.1 nM) and DMSO which was a solvent of the test compound as a negative control. In the presence of 5% CO2, the cells were cultured at 37° C. for 2 days. A cell counting reagent (Cell Titer-Glo; Promega) was added thereto, and the light emitting intensity was measured using a luminometer (Envison or ARVO; PerkinElmer Inc.). […] The inhibitory rate of the test compound was calculated and the concentration causing 50% inhibition (IC50 value) was determined by a logistic regression method.
(Cellular ATP, detected with luciferase, serves as a proxy for viable cell number.)

Test [3] deals with Ba/F3 cells expressing EGFR T790M/L858R mutation kinase. As to the kind of experiment: Inhibition of EGFR T790M/L858R mutation kinase-dependent cell proliferation (Cell Titer-Glo). The conditions noted are these: Mus musculus, BaF3, 48 h, cultured 2 days. The test is classed as cell-based. How it is done:
as §1

Another test concerns the target EGFR [T790M/L858R] (Homo sapiens (Human), UniProt P00533, L858R/T790M). As to the kind of experiment: Inhibitory activity on EGFR T790M/L858R mutation kinase (LabChip peptide substrate phosphorylation). The test is classed as biochemical. The conditions noted are these: EGFR [T790M/L858R] enzyme, 2 hours preincubation, ATP 1000 μM. Here is the method: The phosphorylation activity on the peptide substrate of EGFR was investigated using LabChip (trademark) Systems (Caliper Life Sciences, Inc.). […] (Carna Biosciences, Inc.) was used. […] Then, the substrate and the ATP solution were added thereto, followed by reaction for 1 hour. An ATP concentration of 1000 μM was used. A reaction liquid containing the enzyme protein but no test compound (in which the DMSO alone was added as a solvent at 0.4% in place of the test compound) was prepared, followed by reaction in the same manner with or without ATP addition. […] The concentration causing 50% inhibition (IC50) was calculated for the test compound by a logistic regression method.

Chain of EGFR [T790M/L858R] (P00533 25-1210 T790M/L858R): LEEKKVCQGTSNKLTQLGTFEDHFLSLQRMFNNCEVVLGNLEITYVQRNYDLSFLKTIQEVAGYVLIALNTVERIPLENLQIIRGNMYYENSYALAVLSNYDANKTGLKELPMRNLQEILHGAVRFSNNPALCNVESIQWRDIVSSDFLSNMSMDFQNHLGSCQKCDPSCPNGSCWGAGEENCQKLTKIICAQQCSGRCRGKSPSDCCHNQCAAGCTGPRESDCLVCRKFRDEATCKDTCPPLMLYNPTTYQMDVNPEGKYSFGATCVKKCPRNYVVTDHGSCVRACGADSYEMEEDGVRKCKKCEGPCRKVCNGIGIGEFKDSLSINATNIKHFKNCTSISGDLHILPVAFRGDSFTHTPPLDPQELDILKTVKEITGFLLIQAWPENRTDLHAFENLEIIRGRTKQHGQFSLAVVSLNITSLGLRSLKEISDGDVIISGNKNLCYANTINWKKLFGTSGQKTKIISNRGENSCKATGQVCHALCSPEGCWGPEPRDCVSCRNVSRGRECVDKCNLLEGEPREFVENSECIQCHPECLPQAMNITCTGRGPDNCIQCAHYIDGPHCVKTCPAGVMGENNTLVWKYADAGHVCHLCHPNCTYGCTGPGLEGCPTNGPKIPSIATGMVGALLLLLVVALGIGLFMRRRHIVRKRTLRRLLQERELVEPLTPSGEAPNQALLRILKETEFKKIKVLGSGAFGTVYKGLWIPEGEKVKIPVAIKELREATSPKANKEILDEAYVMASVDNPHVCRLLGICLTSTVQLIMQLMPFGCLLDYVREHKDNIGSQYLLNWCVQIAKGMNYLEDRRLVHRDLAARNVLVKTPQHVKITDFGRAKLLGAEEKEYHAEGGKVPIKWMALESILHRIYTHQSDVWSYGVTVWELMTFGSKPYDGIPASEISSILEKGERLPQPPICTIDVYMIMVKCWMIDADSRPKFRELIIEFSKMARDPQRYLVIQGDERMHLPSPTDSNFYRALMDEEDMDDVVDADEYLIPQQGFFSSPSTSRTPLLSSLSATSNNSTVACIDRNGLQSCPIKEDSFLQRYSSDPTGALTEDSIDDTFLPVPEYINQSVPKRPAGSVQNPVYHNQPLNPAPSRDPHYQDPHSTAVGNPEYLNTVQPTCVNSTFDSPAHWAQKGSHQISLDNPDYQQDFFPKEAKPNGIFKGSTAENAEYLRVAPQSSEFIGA

By IC50 is commonly meant the concentration needed to halve the response being measured. Low readings indicate greater potency, high ones weaker potency. `C=CC(=O)Nc1cccc(Oc2nc(Nc3ccc(N4CCN(C)CC4)cc3)c(C(N)=O)nc2CC)c1` [Example 1, 5-[3-(acryloylamino)phenoxy]-6-ethyl-3-{[4-(4-methylpiperazin-1-yl)phenyl]amino}pyrazine-2-carboxamide]: the inhibition in vivo at 10 mg/kg in test [1] is 24%. Also, the IC50 came out at 1.4 nM in test [2], 2.2 nM in test [3] and 1.3 nM against EGFR [T790M/L858R].
`CCc1nc(C(N)=O)c(Nc2ccc(N3CCN(C)CC3)cc2)nc1Oc1cccc(NC(=O)/C=C/CN(C)C)c1` [Example 3, 5-(3-{[(2E)-4-(dimethylamino)buta-2-enoyl]amino}phenoxy)-6-ethyl-3-{[4-(4-methylpiperazin-1-yl)phenyl]amino}pyrazine-2-carboxamide]: the IC50 in test [2] amounted to 8.8 nM; in test [3], 17 nM; at EGFR [T790M/L858R], 1.4 nM.
`C=CC(=O)Nc1cccc(Oc2nc(Nc3ccc(N4CCN(C)CC4)cc3)c(C(N)=O)nc2CC)c1C` [Example 15]: in test [1], the inhibition in vivo at 10 mg/kg came to 41%. In addition, the IC50 in test [2] is 0.77 nM; in test [3], 1.1 nM; against EGFR [T790M/L858R] it was 1.2 nM.
Take `C=CC(=O)N1CCC(c2nc(Nc3ccc(N4CCC(N5CCN(C)CC5)CC4)c(C)c3)c(C(N)=O)nc2CC)CC1` [Example 24]: the inhibition in vivo at 10 mg/kg in test [1] is 100%. This compound also showed an IC50 in test [2] of 0.48 nM.
Turning to `C=CC(=O)Nc1cccc(Oc2cnc(C(N)=O)c(Nc3ccc(N4CCN(C)CC4)cc3)n2)c1` [Example 26], the IC50 in test [2] came to 0.52 nM; in test [3], 0.92 nM; at EGFR [T790M/L858R] it was 1.1 nM.
For `C=CC(=O)Nc1cccc(Oc2nc(Nc3ccc(OC)c(N4CCN(C)CC4)c3)c(C(N)=O)nc2CC)c1` [Example 42] the same measures were 1.3 nM, 1.4 nM and 1.2 nM.
On to `C=CC(=O)Nc1cccc(Oc2nc(Nc3ccc(N4CCN(CC)CC4)cc3)c(C(N)=O)nc2CC)c1` [Example 43], for which half-maximal inhibition in test [2] (IC50) required 0.51 nM.
Regarding `C=CC(=O)N1CC[C@@H](Oc2nc(Nc3ccc(N4CCC(N5CCN(C)CC5)CC4)cc3)c(C(N)=O)nc2CC)C1` [Example 54], in test [1], the inhibition in vivo at 10 mg/kg stood at 74%. Besides, the IC50 in test [2] was found to be 3.2 nM; in test [3], 4.5 nM; against EGFR [T790M/L858R], 1.7 nM.
Regarding `C=CC(=O)Nc1cccc(Oc2nc(Nc3cnn(C4CCN(C)CC4)c3)c(C(N)=O)nc2C(C)C)c1` [Example 56], the IC50 in test [2] came out at 1.6 nM; in test [3], 2 nM; against EGFR [T790M/L858R], 1.3 nM.
`C=CC(=O)Nc1cccc(Oc2nc(Nc3ccc(N4CCN(C)[C@@H](C)C4)cc3)c(C(N)=O)nc2CC)c1` [Example 63] yielded an IC50 in test [2] of 0.66 nM. In other words, the sub-nanomolar range.
Consider `C=CC(=O)Nc1cccc(Oc2nc(Nc3ccc(N4CCN(C)[C@H](C)C4)cc3)c(C(N)=O)nc2CC)c1` [Example 64], for which the inhibition in vivo at 10 mg/kg in test [1] was determined as 28%. The same compound came in with an IC50 in test [2] of 0.42 nM.
As to `C=CC(=O)N1CCC[C@@H](Oc2nc(Nc3ccc(N4CCC(N5CCN(C)CC5)CC4)cc3)c(C(N)=O)nc2CC)C1` [Example 79], the inhibition in vivo at 10 mg/kg in test [1] turned out to be 30%. In addition, it took 1.3 nM to reach half-maximal inhibition on EGFR [T790M/L858R] (IC50).
`C=CC(=O)N1CCC[C@@H](Oc2nc(Nc3ccc(N4CCC(N5CCN(C)CC5)CC4)c(C)c3)c(C(N)=O)nc2CC)C1` [Example 80]: in test [1], the inhibition in vivo at 10 mg/kg came out at 27%. Moreover, the midpoint of inhibition at EGFR [T790M/L858R], the IC50, lay at 1.2 nM.
In the case of `C=CC(=O)Nc1ccc(F)c(Oc2nc(Nc3ccc(N4CCN(C)CC4)cc3)c(C(N)=O)nc2CC)c1` [Example 82], the inhibition in vivo at 10 mg/kg in test [1] stood at 84%. Besides, the IC50 against EGFR [T790M/L858R] was found to be 1.5 nM.
